Laboratory results from patent publication US4238566A (priority 1980, dated 1980).

How the values were obtained:
Assay type in all cases: biochemical
[1] = target: T1, Bovine milk xanthine oxidase (E.C. 1.2.3.2.), XO concentrate by prior art 1 (Horecker and Heppel 1955), E280/E450 ratio 6.1 (Bos taurus, UniProt P80457); assay: Kinetic parameters (Km, Vmax, KI) of XO concentrate prepared by prior art method of Horecker and Heppel; conditions: for Vmax with hypoxanthine / Vmax with xanthine: XO by prior art 1
T1 construct: Bovine milk XO was purified using three different methods; from tissue; host or cells: bovine milk (purified in-house by the method of Horecker and Heppel 1955)
T1 sequence (P80457 whole entry): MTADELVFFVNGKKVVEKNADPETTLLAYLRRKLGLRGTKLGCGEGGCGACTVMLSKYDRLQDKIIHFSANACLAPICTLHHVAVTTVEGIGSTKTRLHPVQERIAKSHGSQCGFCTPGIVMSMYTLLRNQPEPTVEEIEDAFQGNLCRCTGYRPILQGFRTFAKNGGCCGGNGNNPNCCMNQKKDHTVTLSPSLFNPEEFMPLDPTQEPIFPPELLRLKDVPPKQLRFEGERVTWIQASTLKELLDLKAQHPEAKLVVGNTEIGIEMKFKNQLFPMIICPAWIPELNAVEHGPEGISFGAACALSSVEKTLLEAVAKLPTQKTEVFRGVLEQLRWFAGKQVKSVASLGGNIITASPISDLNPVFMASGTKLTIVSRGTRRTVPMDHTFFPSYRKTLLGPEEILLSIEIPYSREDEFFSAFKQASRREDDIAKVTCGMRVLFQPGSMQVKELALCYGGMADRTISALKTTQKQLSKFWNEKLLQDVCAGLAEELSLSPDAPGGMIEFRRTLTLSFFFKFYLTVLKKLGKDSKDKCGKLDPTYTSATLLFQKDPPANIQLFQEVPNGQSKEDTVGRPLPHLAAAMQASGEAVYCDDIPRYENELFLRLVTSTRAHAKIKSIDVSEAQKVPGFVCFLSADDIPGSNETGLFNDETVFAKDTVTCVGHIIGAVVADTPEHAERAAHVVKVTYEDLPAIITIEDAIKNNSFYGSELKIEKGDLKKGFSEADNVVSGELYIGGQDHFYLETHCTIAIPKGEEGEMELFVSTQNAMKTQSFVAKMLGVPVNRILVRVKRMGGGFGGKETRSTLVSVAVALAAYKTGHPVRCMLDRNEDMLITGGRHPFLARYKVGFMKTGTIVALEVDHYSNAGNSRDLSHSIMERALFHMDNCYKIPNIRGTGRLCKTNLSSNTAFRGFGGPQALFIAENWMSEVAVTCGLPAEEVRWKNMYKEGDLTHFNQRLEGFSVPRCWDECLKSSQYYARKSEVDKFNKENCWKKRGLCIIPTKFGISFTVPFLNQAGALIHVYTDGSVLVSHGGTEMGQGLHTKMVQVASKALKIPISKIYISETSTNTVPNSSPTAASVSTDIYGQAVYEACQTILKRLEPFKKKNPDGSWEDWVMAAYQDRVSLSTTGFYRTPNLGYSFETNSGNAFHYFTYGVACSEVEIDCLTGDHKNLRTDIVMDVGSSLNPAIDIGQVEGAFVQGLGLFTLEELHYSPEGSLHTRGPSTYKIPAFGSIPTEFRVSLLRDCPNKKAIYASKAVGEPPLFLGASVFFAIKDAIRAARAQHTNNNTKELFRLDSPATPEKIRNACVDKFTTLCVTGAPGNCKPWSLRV
Experimental: (§1) Bovine milk XO was purified using three different methods and the purified XO enzyme concentrate preparation from each method was assayed for its kinetic parameters.
(§2) The first method used was that of Horecker and Heppel (Methods in Enzymology, Vol. 2, pp. 482-485, 1955). […] The second method was that of Waud et al. (Arch. Biochem. and Biophys., Vol. 169, pp. 695-701, 1975). […] The third method was that described above for the preparation of the XO concentrate of this invention.
(§3) The concentration of the substrate was varied over a gradient of initial concentrations of one to nine millimolar. […] Three replicates of each assay were performed at each concentration of substrate. Buffer pH was monitored constantly and the percent oxygen saturation was maintained at approximately 75%. Lineweaver-Burk and Hanes plots were then constructed from the collected data.
(§4) Lineweaver-Burk and Hanes plots were constructed from the data and both Km and Vmax determined therefrom.
(§5) Experimental conditions for this part of the study were similar to the preceding experiments. […] From the collected data, Lineweaver-Burk plots for competitive inhibition were constructed.

[2] = target: T2, Bovine milk xanthine oxidase (E.C. 1.2.3.2.), XO concentrate by prior art 2 (Waud et al. 1975), E280/E450 ratio 4.8 (Bos taurus, UniProt P80457); assay: Kinetic parameters (Km, Vmax, KI) of XO concentrate prepared by prior art method of Waud et al.; conditions: for Vmax with hypoxanthine / Vmax with xanthine: XO by prior art 2
T2 construct: Bovine milk XO was purified using three different methods; from tissue; host or cells: bovine milk (purified in-house by the method of Waud et al. 1975)
T2 sequence (P80457 whole entry): as above
Experimental: as §1, §2, §3, §4, §5

[3] = target: T3, Bovine milk xanthine oxidase (E.C. 1.2.3.2.), XO concentrate of this invention, E280/E450 ratio 2.0 to 4.1 (Bos taurus, UniProt P80457); assay: Kinetic parameters (Km, Vmax, KI) of XO concentrate of this invention; conditions: for Vmax with hypoxanthine / Vmax with xanthine: XO of this invention
T3 construct: Bovine milk XO was purified using three different methods; from tissue; host or cells: bovine milk (purified in-house by the method of the invention)
T3 sequence (P80457 whole entry): as above
Experimental: as §1, §2, §3, §4, §5

SMILES: O=c1[nH]cnc2nc[nH]c12 [hypoxanthine]
- Vmax with hypoxanthine ([1]; pH 8.3): 1.25 I.U.
- Vmax with hypoxanthine ([1]; pH 8.7): 0.448 I.U.
- Vmax with hypoxanthine ([2]; pH 8.3): 1.31 I.U
- Vmax with hypoxanthine ([2]; pH 8.7): 0.463 I.U.
- Vmax with hypoxanthine ([3]; pH 8.3): 1.47 I.U.
- Vmax with hypoxanthine ([3]; pH 8.7): 0.666 I.U.

SMILES: Nc1nc2ncc(CNc3ccc(C(=O)N[C@@H](CCC(=O)O)C(=O)O)cc3)nc2c(=O)[nH]1 [folic acid]
- Ki [1]: 1790 nM
- Ki [2]: 1690 nM
- Ki ([3]; read-out: KI with folic acid): 1150 nM

SMILES: O=c1[nH]c(=O)c2[nH]cnc2[nH]1 [xanthine]
- Vmax with xanthine ([1]; pH 8.3): 2.0 I.U.
- Vmax with xanthine ([1]; pH 8.7): 2.03 I.U.
- Vmax with xanthine ([2]; pH 8.3): 2.8 I.U.
- Vmax with xanthine ([2]; pH 8.7): 2.16 I.U.
- Vmax with xanthine ([3]; pH 8.3): 4.76 I.U.
- Vmax with xanthine ([3]; pH 8.7): 3.125 I.U.
